Results from PubChem BioAssay (NCI).
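All cell lines were grown in 96-well plates and treated with compound for 48 hours. GI50 = concentration required for 50% inhibition of growth. TGI marks complete inhibition of growth.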

Each molecule was assayed on HOP-92 NSCLC (assay: NCI-60 cell line screen, 48 h).

How did the TGI turn out when `COc1ccc2c(=O)c(O)c(-c3ccc(OC)c(OC)c3)oc2c1` was run?
Its TGI is 9.17 µM.

With `COc1ccc(C(OCC2OC(n3cc(C)c(=O)[nH]c3=O)CC2n2cc(Cn3cc(I)c(=O)[nH]c3=O)nn2)(c2ccccc2)c2ccccc2)cc1` (configuration not stated) as the molecule, how does the TGI read?
The TGI was over 100 µM.

With `O=S1(=O)NC(=NCc2c[nH]c3ccccc23)N(c2ccccc2)c2ccncc21` as the molecule, how does the TGI read?
The TGI was over 100 µM.

With `CC(C)CCCCCCCCCCCCC(=O)NCC(=O)NC1C(C)OC(Nc2ncnc3c2ncn3C)C(O)C1O` (configuration not stated) as the molecule, how does the TGI read?
The TGI was 8.41 µM.

With `COc1ccc(CNc2nc(NCc3ccc(OC)c(OC)c3)nc(NC3CCCCC3)n2)cc1` as the molecule, how does the TGI read?
The TGI was over 100 µM.

For `C=C(C1=CC(=O)C(C)(C)O1)[C@@H]1CC=C([C@@H]2CC[C@H]3[C@@]2(C)CC[C@H]2C(C)(C)C(=O)[C@H](O)C[C@]32C)[C@H](O)O1`, which TGI is on record?
The TGI was 4.11 µM.

With `CC1=CC2C(O1)C1C(=O)C=CC(=O)C1=CC2[N+](=O)[O-]` (configuration not stated) as the molecule, how does the TGI read?
Its TGI is 6.2 µM.

`Cc1cn(C2CC(n3cc(Cn4cc(I)c(=O)[nH]c4=O)nn3)C(CO)O2)c(=O)[nH]c1=O` (configuration not stated) was tested. Which TGI did it give?
Its TGI is over 100 µM.

How did the TGI turn out when `CNC(=O)OCC1=C(COC(=O)NC)C(C)N(c2ccc(OC)cc2)C1` (configuration not stated) was run?
The TGI was over 100 µM.

`CCC12C=CCN3CCC4(C(=C(C(=O)OC)[C@@H]1O)Nc1ccccc14)C32` (some centres not stated) was tested. Which TGI did it give?
Its TGI is 4.16 µM.

For `O=C(O)CN(CC(=O)O)C1CCCCC1N(CC(=O)O)CC(=O)NCCN=C=S` (configuration not stated), which TGI is on record?
Its TGI is over 100 µM.

`Cc1nc(C(N)=S)sc1/C(CC(=O)C(=O)Nc1cccc2ccc(O)cc12)=N\NC(=O)c1ccncc1` was tested. Which TGI did it give?
The TGI was over 100 µM.

How did the TGI turn out when `Oc1cc2c3c(c1)c1cc4c(cc1c[n+]3CC2)OCO4` was run?
Its TGI is over 75.6 µM.

Which TGI does the source give for `Cc1cn(C2CC(N(O)C(N)=O)C(CO)O2)c(=O)[nH]c1=O` (configuration not stated) here?
Its TGI is over 100 µM.

Which TGI does the source give for `COc1nc(N)c(C(=O)CCl)c(=O)n1C` here?
The TGI was 16.1 µM.

With `O=C1CCC23CC(C=CC=C12)n1c(=O)n(-c2ccccc2)c(=O)n13` (configuration not stated) as the molecule, how does the TGI read?
Its TGI is over 100 µM.

`CC(=O)NC1=C(NCCC(C)C)C(=O)c2ccccc2C1=O` was tested. Which TGI did it give?
The TGI was over 50 µM.

For `O=C(O)c1cccc2c1/C(=N/Nc1ccccc1)CC2`, which TGI is on record?
Its TGI is over 100 µM.

`O=C(Cc1cccs1)N[C@@H]1C(=O)N2C(C(=O)OC(c3ccccc3)c3ccccc3)=C(CO)CS[C@H]12` was tested. Which TGI did it give?
The TGI was over 100 µM.

For `Cc1ccccc1-n1c(=O)c2ncn(CCCl)c2n(-c2ccccc2C)c1=S`, which TGI is on record?
The TGI was over 100 µM.

What follows are molecules tested on MDA-MB-231 breast (assay: NCI-60 cell line screen, 48 h).

For `O=c1[nH][nH]c(=O)n1Cc1ccccc1Cn1c(=O)[nH][nH]c1=O`, which TGI is on record?
Its TGI is over 100 µM.

`CCNC(=S)N/N=C/c1cc([N+](=O)[O-])ccc1O` was tested. Which TGI did it give?
The TGI was over 100 µM.

How did the TGI turn out when `CCOC(=O)c1c2ccccc2n2c(N)c(C(N)=O)nnc12` was run?
The TGI was 88.6 µM.

For `Cc1cc(N(CCC#N)CCC#N)ccc1/C(N=Nc1ccc(Cl)cc1)=N\NC(=O)c1ccccc1`, which TGI is on record?
Its TGI is over 100 µM.

With `CCc1ccc(CCN2CCCCC2)nc1` as the molecule, how does the TGI read?
The TGI was over 100 µM.

`CC(C)C1/C(=N/O)CC(c2ccccc2)N(N=O)C1c1ccccc1` (configuration not stated) was tested. Which TGI did it give?
The TGI was over 100 µM.

How did the TGI turn out when `CC1(C)N=C(/C(Cl)=[N+](/[O-])C(=O)c2ccc(F)cc2)C(C)(C)N1O` was run?
The TGI was 33.6 µM.

How did the TGI turn out when `COC(=O)[C@H](Cc1c[nH]c2ccccc12)NP(=O)(O)OCC1C=CC(n2cc(C)c(=O)[nH]c2=O)O1` (some centres not stated) was run?
Its TGI is over 100 µM.

`COc1cc(/C=C2\S/C(=N/Nc3nc(-c4ccc(Br)cc4)cs3)NC2=O)cc(OC)c1OC` was tested. Which TGI did it give?
The TGI was 47.6 µM.

Which GI50 does the source give for `CCCNC1=C2CC(C)CC(OC)[C@@H](O)[C@H](C)/C=C(\C)C(OC(N)=O)C(OC)/C=C\C=C(/C)C(=O)NC(=CC1=O)C2=O` (some centres not stated) here?
The GI50 was 3.36 µM.

What about the TGI of the same molecule?
The TGI was 7.47 µM.

Which TGI does the source give for `CCC1(O)CC2CC(=O)OC2C1O` (configuration not stated) here?
Its TGI is over 100 µM.

`Cc1ccc(SCC(CSCCO)OCn2cnc3c2NC(N)=NC32OCCO2)cc1` (configuration not stated) was tested. Which TGI did it give?
The TGI was over 100 µM.

For `N#CC1=C(N)N(c2ccccc2)C(c2ccco2)C1(C#N)C#N` (configuration not stated), which TGI is on record?
Its TGI is 35.1 µM.

`Cc1cc(=O)[nH]c(NN2C(Cl)C(=O)C2c2ccccc2O)n1` (configuration not stated) was tested. Which TGI did it give?
Its TGI is over 100 µM.

Which TGI does the source give for `CC(C)c1ccc(/C=C2/C=C(c3ccc4ccccc4c3)OC2=O)cc1` here?
Its TGI is over 100 µM.

For `CC[C@@]1(C[C@H]2C[C@@]3(C(=O)OC)c4[nH]c5ccccc5c4CCN3C2=O)COC2(CCCCC2)O1`, which TGI is on record?
Its TGI is over 100 µM.

Which TGI does the source give for `COc1ccc2c(=O)c(O)c(-c3ccc(OC)c(OC)c3)oc2c1` here?
Its TGI is over 100 µM.

Which TGI does the source give for `COc1ccc(C(OCC2OC(n3cc(C)c(=O)[nH]c3=O)CC2n2cc(Cn3cc(I)c(=O)[nH]c3=O)nn2)(c2ccccc2)c2ccccc2)cc1` (configuration not stated) here?
The TGI was over 100 µM.

`O=S1(=O)NC(=NCc2c[nH]c3ccccc23)N(c2ccccc2)c2ccncc21` was tested. Which TGI did it give?
The TGI was over 100 µM.

How did the TGI turn out when `COc1ccc(CNc2nc(NCc3ccc(OC)c(OC)c3)nc(NC3CCCCC3)n2)cc1` was run?
Its TGI is over 100 µM.

For `C=C(C1=CC(=O)C(C)(C)O1)[C@@H]1CC=C([C@@H]2CC[C@H]3[C@@]2(C)CC[C@H]2C(C)(C)C(=O)[C@H](O)C[C@]32C)[C@H](O)O1`, which TGI is on record?
Its TGI is 4.74 µM.

For `CC1=CC2C(O1)C1C(=O)C=CC(=O)C1=CC2[N+](=O)[O-]` (configuration not stated), which TGI is on record?
The TGI was 38.9 µM.

Which TGI does the source give for `Cc1cn(C2CC(n3cc(Cn4cc(I)c(=O)[nH]c4=O)nn3)C(CO)O2)c(=O)[nH]c1=O` (configuration not stated) here?
Its TGI is over 100 µM.

`CNC(=O)OCC1=C(COC(=O)NC)C(C)N(c2ccc(OC)cc2)C1` (configuration not stated) was tested. Which TGI did it give?
The TGI was over 100 µM.

Which TGI does the source give for `O=C1CCC(=O)N1n1c(Cc2ccccc2)n[nH]c1=O` here?
Its TGI is over 100 µM.

With `O=C(O)CN(CC(=O)O)C1CCCCC1N(CC(=O)O)CC(=O)NCCN=C=S` (configuration not stated) as the molecule, how does the TGI read?
Its TGI is over 100 µM.
